Like-named read-outs stand apart in the source and are kept apart here.
What was measured:
[1] = biological target: T1, wild type aromatase (CYP19A1*1) (Homo sapiens, UniProt P11511); experiment: Anti-aromatase activity assay, estrone formation by UPLC/MS/MS, microsomes of HEK293 overexpressing wild type aromatase; assay type: biochemical
T1 sequence (P11511 1-503): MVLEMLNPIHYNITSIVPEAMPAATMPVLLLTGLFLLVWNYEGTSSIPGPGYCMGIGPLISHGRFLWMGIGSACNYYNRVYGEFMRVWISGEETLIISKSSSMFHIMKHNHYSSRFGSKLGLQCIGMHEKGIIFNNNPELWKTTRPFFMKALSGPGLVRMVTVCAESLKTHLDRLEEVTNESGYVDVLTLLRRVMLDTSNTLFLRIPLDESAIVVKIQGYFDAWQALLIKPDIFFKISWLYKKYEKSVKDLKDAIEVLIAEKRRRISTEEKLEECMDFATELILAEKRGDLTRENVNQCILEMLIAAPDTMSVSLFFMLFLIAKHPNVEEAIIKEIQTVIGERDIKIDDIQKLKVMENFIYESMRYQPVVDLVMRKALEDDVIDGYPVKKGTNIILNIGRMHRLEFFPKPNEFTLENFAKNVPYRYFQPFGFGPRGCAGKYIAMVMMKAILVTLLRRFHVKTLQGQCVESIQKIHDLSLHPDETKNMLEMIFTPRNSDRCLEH

[2] = EXE metabolite identification in human liver microsomes by UPLC/MS/MS; assay type: in vitro ADME; conditions: 50 μg HLM, 400 μmol/L EXE, NADPH regeneration system, 37°C, 4 h; for identified as phase I EXE metabolite in incubations of EXE with pooled human liver microsomes: comparison to reference compounds
[3] = system: aromatase; parameters: method as in Buzzetti et al. 1993; conditions: ref Buzzetti et al. 1993; cited from earlier work

| SMILES | IC50 [1] [µM] | identified as phase I EXE metabolite in incubations of EXE with pooled human liver microsomes [2] | further results |
| --- | --- | --- | --- |
| C[C@]12C=CC(=O)C=C1C(CO)=CC1C2CC[C@]2(C)C(=O)CCC12 (some centres unmarked) [6-hydroxymethylandrosta-1,4,6-triene-3,17-dione] | 61 ± 20 | identified | fold less potent than EXE (wild type aromatase) ([1]; ratio of IC50 values versus EXE): 67 fold |
| C[C@]12C=CC(=O)C=C1[C@@]1(CO1)CC1C2CC[C@]2(C)C(=O)CCC12 (stereo partly drawn) [6α-spirooxiranandrosta-1,4-diene-3,17-dione] | 1.2 ± 0.19 |  | fold more potency than its 6β stereoisomer (wild type aromatase) ([1]; ratio of IC50 values versus 6β-spirooxiranandrosta-1,4-diene-3,17-dione): ~5 fold |
| C[C@]12C=CC(=O)C=C1C(O)(CO)CC1C2CC[C@@]2(C)C1CC[C@@H]2O (stereo partly drawn) [6α/β,17β-dihydroxy-6α/β-hydroxymethylandrosta-1,4-diene-3-one] | > 100 | identified |  |
| C[C@]12C=CC(=O)C=C1C(O)(CO)CC1C2CC[C@]2(C)C(=O)CCC12 (stereo partly drawn) [6α/β-hydroxy-6α/β-hydroxymethylandrosta-1,4-diene-3,17-dione] | > 100 | identified |  |
| C[C@]12C=CC(=O)C=C1[C@]1(CO1)CC1C2CC[C@]2(C)C(=O)CCC12 (stereo partly drawn) [6β-spirooxiranandrosta-1,4-diene-3,17-dione] | 5.7 ± 1.6 |  |  |
| C=C1CC2C(CC[C@@]3(C)C2CC[C@@H]3O)[C@@]2(C)C=CC(=O)C=C12 (stereo partly drawn) [17β-dihydroexemestane] |  | identified | fold less potent than EXE (earlier study) [3]: approximately 2.6 fold; abundance of the EXE metabolite formed in human liver microsomes [2]: predominant EXE metabolite |
| C[C@]12CC[C@H]3[C@@H](C=C(CO)C4=CC(=O)C=C[C@@]43C)[C@@H]1CC[C@@H]2O [17β-hydroxy-6-hydroxymethylandrosta-1,4,6-triene-3-one] |  |  | IC50 ([1]; 15 μg HEK293 microsomes, 5 μmol/L androstenedione, NADPH regeneration system, 37°C, 2 h, read-out: IC50 for wild-type aromatase): > 100 µM |
